Source: patent US20240165180A1, “Processes for Extracting Muscimol from Amanita Muscaria” (priority 2021, published 2024)

Experiment: Heat exposure of muscimol during distillation
Type: physicochemical
Conditions: after being exposed to heat for 3 hours (distillation)
Procedure: In one example, distillation is performed for about 0.5 hours to about 6 hours. In some embodiments, distillation is performed for about 5 to about 6 hours. In another example, it is performed for about 2 to about 3 hours. In another example, it is performed for about 3 hours. […] However, in some embodiments, further distillation beyond 3 hours, such as 4 hours, 5 hours, 6 hours, or more than 6 hours, may be advantageous. In some embodiments, the resulting muscimol extract is a liquid.
The refluxed extract was then distilled for a period of 3 hours. Samples were taken prior to distillation, after 1 hour, 2 hours, and at 3 hours of distillation, as discussed further below. After distillation, the filtrate was cooled to 3° C. in a refrigerator. After about 3 hours of cooling, there was coagulated material suspended in the filtrate. The coagulated material in the filtrate was removed via vacuum filtration through the vacuum filtration setup described above (without the cheesecloth). After filtration, the filter setup was rinsed under vacuum with 30 mL of distilled water into the filtrate.

For NCc1cc(=O)[nH]o1 [muscimol, 5-(Aminomethyl)-1,2-oxazol-3(2H)-one], the stability to heat was “begins degrading (to a very minimal degree)”.
